Series [1] relates to connective tissue growth factor (CTGF). In words: Affymetrix gene array on skin explants, CTGF. In kind it is cell-based, human. As to conditions: topical, 24 hours, cut-off |log 2−ratio|>1. An excerpt: (§1) Subcutaneous fat from full thickness skin, obtained from surgical waste material from breast reduction procedures, was removed with a scalpel. Three healthy Caucasian female donors were used for this study. The female donors differed from those of the skin-treatment study outlined previously 8 mm punch biopsies were taken from the skin (and these biopsies are now referred to as skin explants). Skin explants were put on Milipore cell culture inserts (12 mm diameter). Inserts containing skin explants were put in 6-well plates (one insert/well) and 1 mL of supplemented keratinocyte medium (ex Cascade Biologics) was added to each well. A tretinoin-containing cream (Aberela® ex. Janssen): 0.05% tretinoin in the cream, was applied topically to each explant (5 μL/cm^2) using a positive displacement pipette. A placebo cream without tretinoin was used as a control. The skin explants were incubated with tretinoin for 24 hours at 37° C. in 5% CO2-humidified air.
(§2) RNA concentration was measured with ND-1000 spectrophotometer (ex. NanoDrop Technologies) and RNA quality was evaluated using the Agilent 2100 bioanalyzer system (ex. Agilent Technologies). 250 nanograms of total RNA from each skin or skin explant sample was used to prepare biotinylated fragmented cRNA according to the GeneChip® 3′IVT Express Kit Manual (PN702646 Rev 1, ex. Affymetrix Inc.). Affymetrix GeneChip® expression arrays (Human Genome U133 Plus 2.0) were hybridized for 16 hours in a 45° C. incubator, rotated at 60 rpm. According to the GeneChip Expression Wash, Stain and Scan Manual (PN 702731 Rev 2, ex. Affymetrix Inc.) the arrays were washed and stained using the Fluidics Station 450 and scanned using the GeneChip® Scanner 3000 7G.
Analysis of the gene expression data was carried out in the statistical computing language R (http://www.r-project.org) using packages available from the Bioconductor project (www.bioconductor.org). The raw data was normalized using the robust multi-array average (RMA) method. In order to search for differentially expressed genes between the X samples and the Y samples group an empirical Bayes moderated t-test was then applied using the ‘limma’ package.
Skin explants were obtained as detailed in Example 3.1. Compounds naringenin and N-acetyl aspartic acid were topically applied on skin explants for 24 hours and investigated with Affymetrix gene array.

The test system of series [2] is human reconstructed epidermis (SkinEthic model). In words: In vitro skin irritation, OECD guideline 439. In kind it is cell-based. As to conditions: pure compound, cytotoxicity assay on reconstructed epidermis. As for the experimental part: The studies, aimed at evaluating the capability of the test compound to induce skin irritation effects by a cytotoxicity assay on in vitro human reconstructed epidermis (SkinEthic), were carried out according to the ECVAM protocol of Apr. 27, 2007, the B46 method of the official journal of the European union, dated Aug. 14, 2009 and the OECD guideline 439.

For a further series, the system named is keratin 6. In words: Keratin-6 production in normal human keratinocytes. In kind it is cell-based. As to conditions: normal human keratinocytes (FIG. 11).
Series [3] relates to heparin-binding EGF-like growth factor (HBEGF). The experiment in a line: Affymetrix gene array on skin explants, HBEGF. In kind it is cell-based, human. As to conditions: topical, 24 hours, cut-off |log 2−ratio|>1.
Text: as §1, §2
Analysis of the gene expression data was carried out in the statistical computing language R (http://www.r-project.org) using packages available from the Bioconductor project (www.bioconductor.org). The raw data was normalized using the robust multi-array average (RMA) method. […]

Series [4] has as its system MMP-1, MMP-2, MMP-3, MMP-8, MMP-9. The experiment in a line: UV-induced MMP production in human skin explants. In kind it is cell-based. As to conditions: 1% in propylene glycol (FIG. 2). The procedure: MMP inhibition activity for compound of the invention was tested on human skin explants. Skin explants were sourced from 2 healthy caucasian female breast skin donor […]. A cream containing all-trans retinoic acid (tretinoin) (0.05%) was added topically using positive displacement pipette (5 ul/cm^2) to each explants. A similar cream base without tretinoin was used as placebo control. […] Solutions were kept under nitrogen and used immediately after preparation. Propylene glycol was used as vehicle control for the compounds of the invention in this study. Fluorokine MultiAnalyte Profiling (xMAP) using the BioPlex (ex. Biorad) dual laser flow-based sorting and detection analyzers manufactured by Luminex corporation (Luminex, Austin, Tex.) was employed to measure levels of MMP in conditioned media samples of stimulated dermal fibroblasts. The technology incorporated polystyrene microspheres dyed internally with differing ratios of two spectrally distinct fluorophores to create a family of different spectrally addressed bead sets. […] Samples were analyzed using the Bio-Plex suspension array system and Bio-Plex Manager software 4.0 (Bio-Rad Laboratories, Hercules, Calif.). Quantities were determined by comparison to standard curves obtained for the different MMP.

Three compounds from patent publication US20140301961A1, “COMPOUNDS WITH ANTI-AGING ACTIVITIES” (priority 2011, published 2014) can be followed below.

Take `O=C1C[C@@H](c2ccc(O)cc2)Oc2cc(O)cc(O)c21` [Naringenin, (S)-2,3-Dihydro-5,7-dihydroxy-2-(4-hydroxyphenyl)-4H-1-benzopyran-4-one]: the CTGF gene expression in series [1] came out at 1.05 log 2−ratio. Further, the skin irritation entry in series [2] is recorded as “non-irritating to skin”. Further, the keratin-6 production result in the series with keratin 6 is “stimulated keratin-6 production”. In series [3], the HBEGF gene expression is recorded as 1.19 log 2−ratio.

For `CC(=O)N[C@@H](CC(=O)O)C(=O)O` [N-Acetyl aspartic acid, (2S)-2-Acetamidobutanedioic acid], the CTGF gene expression in series [1] was found to be 1.03 log 2−ratio. Also, the skin irritation result in series [2] was “non-irritating to skin”. In series [4], the “inhibition of UV-induced MMP-1, MMP-2, MMP-3, MMP-8, MMP-9 production” value is given as “inhibition”. Besides, in series [3], the HBEGF gene expression result is listed as “No”.

Turning to `C=C1C[C@]23C[C@@]1(O)CC[C@H]2[C@@]12C=C[C@H](O)[C@@](C)(C(=O)O1)[C@@H]2[C@@H]3C(=O)O` [Gibberellic acid, (3S,3aS,4S,4aS,7S,9aR,9bR,12S)-7,12-dihydroxy-3-methyl-6-methylene-2-oxoperhydro-4a,7-methano-9b,3-propenoazuleno[1,2-b]furan-4-carboxylic acid], the “inhibition of UV-induced MMP-1, MMP-2, MMP-3, MMP-8, MMP-9 production” value in series [4] was “inhibition”.
